Laboratory results published in ChEMBL document CHEMBL1201862, “PubChem BioAssay data set” (2004).
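Protocol summary: plate cells (96-well), add compound at 5 concentrations, incubate 48 h, interpolate endpoints linearly. Abbreviation: GI50, concentration required for 50% inhibition of growth.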 Calls of active or inactive are those of the source. No stated cut-off is given here; in the data, active = GI50 up to about 1.1 µM and inactive = higher.

Tests used:
Assay in all cases: DTP human tumour cell line panel, 48 h
XF498 = test system: XF498
DMS-114 = test system: DMS-114
DLD-1 = test system: DLD-1
Hs-578T = test system: Hs-578T
LXFL 529 = test system: LXFL 529
KM-20L2 = test system: KM-20L2
RXF 631 = test system: RXF 631
SNB-78 = test system: SNB-78

Measured: GI50

CC(=O)Oc1c(OC(C)=O)c(-c2ccc(O)c(O)c2)c(O)c(O)c1-c1ccc(O)cc1
inactive: XF498 82.2 µM | DMS-114 21.3 µM | DLD-1 > 100 µM

COc1nc(Cl)nc(N[C@H](C)c2c3ccccc3cc3ccccc23)n1
inactive: Hs-578T 7.69 µM

Cc1ccc(NC(=O)CC(=O)n2nc(-c3ccccc3)c(/N=N/c3ccccc3C(=O)O)c2-c2ccccc2)cc1
inactive: LXFL 529 > 100 µM | KM-20L2 84.7 µM | DLD-1 39.3 µM | RXF 631 > 100 µM

COc1ccc2oc3c(ccc[n+]3C)c(=O)c2c1
inactive: Hs-578T > 100 µM

CCN(CC)CCCNC(=O)c1ccccc1Nc1c(Cl)cccc1Cl
inactive: LXFL 529 14.6 µM | KM-20L2 2.56 µM | XF498 2.26 µM | DMS-114 12.2 µM | DLD-1 11.6 µM | SNB-78 15 µM

O=C(O)CC/C(=N\Nc1nsc2ccccc12)c1ccccc1
inactive: LXFL 529 42.5 µM | KM-20L2 78.7 µM | DMS-114 25.5 µM | SNB-78 47.8 µM

CC(C)CC/N=c1/cc2n(-c3ccc(Cl)cc3)c3ccccc3nc-2cc1Nc1ccc(Cl)cc1
inactive: KM-20L2 1.34 µM | XF498 6.64 µM | DMS-114 1.94 µM | DLD-1 1.97 µM | SNB-78 15.5 µM

O=C1CN2Cc3cc(N4CCOCC4)ccc3N=C2N1
inactive: Hs-578T 23.8 µM

O=c1cnn(C/C=C/CP(=O)(O)O)c(=O)[nH]1
inactive: Hs-578T > 100 µM

CCOC(=O)C(C)OC(=O)c1ccc(C)cc1 (stereo not drawn)
inactive: LXFL 529 > 100 µM | KM-20L2 > 100 µM | XF498 84.3 µM | DMS-114 > 100 µM | DLD-1 > 100 µM | RXF 631 > 100 µM | SNB-78 > 100 µM
